Type in all cases: cell-based
The test system of assay [1] is Giardia intestinalis JKH-1. As to the kind of experiment: in vitro growth inhibition of Giardia intestinalis. The following applies: for effective against G. intestinalis: result in words; for IC50: Giardia duodenalis, in vitro, concentration required to inhibit 50% of the growth of the organisms.
Assay [2] has as its system Trichomonas vaginalis UCH-1. As to the kind of experiment: in vitro growth inhibition of Trichomonas vaginalis. The following applies: for effective against T. vaginalis: result in words; for IC50: in vitro, concentration required to inhibit 50% of the growth of the organisms.
Assay [3] concerns P. falciparum. The assay is described as follows: activity against P. falciparum. To be noted: result in words.
Assay [4] relates to Helicobacter pylori. The assay is described as follows: activity against Helicobacter pylori. To be noted: result in words.
Assay [5] concerns Campylobacter jejuni. As to the kind of experiment: activity against Campylobacter jejuni. To be noted: result in words.
For assay [6], the system named is Influenza A. The assay is described as follows: activity against Influenza A. To be noted: result in words.
The test system of assay [7] is Herpes Varicella A. As to the kind of experiment: activity against Herpes Varicella (VZV). The following applies: result in words.
Assay [8] relates to Influenza B. As to the kind of experiment: activity against Influenza B. The following applies: result in words.

Regarding `CC(=O)Oc1ccc(C)cc1C(=O)Nc1ncc([N+](=O)[O-])s1` [Compound H, 2-acetyloxy-5-methyl-N-(5-nitro-2-thiazolyl) benzamide], the “effective against G. intestinalis” value in assay [1] is “effective”. Moreover, in assay [2], the “effective against T. vaginalis” value is given as “effective”.

By IC50 is commonly meant the concentration at which inhibition is half-maximal. A higher IC50 goes with a need for much substance. `CC(=O)Oc1ccccc1C(=O)Nc1ncc([N+](=O)[O-])s1` [Compound B, 2-acetyloxy-N-(5-nitro-2-thiazolyl)benzamide, reference compound]: the IC50 in assay [1] came to 12.5 µM; in assay [2] (Trichomonas vaginalis, UCH1) it was 0.605 µM.

As to `CC(=O)Oc1c(C)cccc1C(=O)Nc1ncc([N+](=O)[O-])s1` [Compound D, 2-acetyloxy-3-methyl-N-(5-nitro-2-thiazolyl) benzamide], in assay [1], the 50% inhibitory concentration (IC50) stood at 0.56 µM and the “effective against G. intestinalis” value is listed as “effective”. Besides, the “potency against Giardia intestinalis compared to nitazoxanide” value in assay [1] (comparison in words, from TABLE I) is “significantly more potent than nitazoxanide”. Besides, in assay [3], the “effective against P. falciparum” value is reported as “effective”. Moreover, the “effective against H. Pylori” value in assay [4] is on record as “effective”. Also, the “effective against C. jejuni” value in assay [5] is “effective”. The IC50 in assay [2] (Trichomonas vaginalis, UCH1) came out at 8.04 µM. For the same compound, in assay [2], the “effective against T. vaginalis” value is “effective”. Further, the “effective against Influenza A” value in assay [6] is on record as “effective”. In addition, the “effective against Herpes VZV” value in assay [7] is “effective”. For the same compound, in assay [8], the “effective against Influenza B” value was “effective”.

Regarding `O=C(Nc1ncc([N+](=O)[O-])s1)c1ccccc1O` [Compound A, 2-hydroxy-N-(5-nitro-2-thiazolyl) benzamide, reference compound], the IC50 in assay [2] turned out to be 1.52 µM.

Regarding `CC(=O)Oc1cc(C)ccc1C(=O)Nc1ncc([N+](=O)[O-])s1` [Compound F, 2-acetyloxy-4-methyl-N-(5-nitro-2-thiazolyl) benzamide], in assay [1], the “effective against G. intestinalis” value is “effective”. In addition, the “effective against T. vaginalis” value in assay [2] is “effective”.

The values above are taken from patent US20060194853A1, “Alkyl benzamides” (priority 2004, published 2006).
